{"source": "patent US20090093618A1", "about": "“STREPTAVIDIN-BIOTIN-LINK ANTIBODY-HAPTEN SYSTEM” (The Regents OF THE UNIVERSITY OF CALIFORNA, priority 2006, published 2009)", "key": {"[1]": {"test_system": "2D12.5", "experiment": "Relative binding curves of 2D12.5 for Y-DOTA isomers, Y-DTPA and sidechain variants (FIG. 16, 17)", "set-up": "species or system mouse", "details": "for relative binding affinity for 2D12.5 (in words): coordinated metal Y^3+", "description": "FIG. 16 is a graphical display showing the relative binding curves of 2D12.5 for Y-DOTA isomers and Y-DTPA. 2D12.5 binds both the (R)- and (S)-isomer of 2-(4-nitrobenzyl)-DOTA when the coordinated metal is Y^3+ (the same behavior is expected for the other rare earths). The (S)-isomer confers Λ-helicity, while the (R)-isomer confers Δ-helicity to the acetate arms. […] Y-DOTA (no-sidearm) exists in solution as a racemic mixture of the coordination isomers.\nFIG. 17 is a graphical display showing relative binding curves of Y-DOTA molecules with different sidechain locations. […] Evaluation of the crystal structure seems to indicate that shorter substitutions at the position may bind with higher affinity. Substitutions at other locations may yield reasonably high affinities as well. The (5-Amino-2-methoxy-phenyl)-carboxymethyl)-DOTA analyzed in this experiment was racemic, so it is not clear which isomer binds with higher affinity. The low pKa of the carboxymethyl proton makes it difficult to prepare a chirally pure molecule."}, "[2]": {"test_system": "antibody 2D12.5", "experiment": "Competitive immunoassay (ELISA) of metal-DOTA complexes relative to Y-DOTA", "format": "binding, mouse", "details": "37° C.; for relative binding affinity compared with Y-DOTA (in words): 15 ions tested", "description": "FIG. 13 is graphical display showing the relative binding of metal-DOTA complexes to antibody 2D12.5. A representative set of competitive binding curves obtained from ELISA experiments described in Example 3 below. Error bars (representing the standard error of the mean) are shown, but are generally smaller than the data points.\nTo determine the metal selectivity of the antibody 2D12.5, a competitive immunoassay was used to measure the binding constants of multiple metal-DOTA complexes relative to Y^3+-DOTA.\nWe examined the monoclonal antibody 2D12.5, initially developed to bind specifically to Y-DOTA for targeted radiotherapy (see, e.g., Goodwin et al., Cancer Res. 54: 5937-5946 (1994)), in order to determine the scope of its activity. To assess the metal selectivity of antibody 2D12.5, a competitive immunoassay to measure the binding constants of various metal-DOTA complexes relative to the original Y^3+ complex was developed (FIG. 12). Briefly, 2D12.5 was incubated at 37° C. in the presence of immobilized Y-DOTA and a soluble metal-DOTA competitor. The metal-DOTA concentration was varied from μM to pM in order to determine the relative binding affinity of 2D12.5 for each metal chelate in comparison to Y-DOTA. Binding was measured by standard methods known to those of skill in the art. The DOTA analog used to evaluate binding was [S]-2-(p-nitrobenzyl)-DOTA, which is similar to the original antigen."}, "[3]": {"test_system": "N85D_G54C 2D12.5 mutant", "experiment": "Permanent binding of metal-AABD and metal-NBD complexes to 2D12.5 Fab mutant N85D_G54C (Western blot)", "experimental": "Metallation of Chelates with stable metal cations. Metals tested in this experiment included Y, La, Lu, Sr and Sc. Stock chelate concentrations were measured using a Co-57 metal binding assay (Meares et al., Anal. Biochem. 142:68-78, 1984). Stock metal solutions (approximately 0.2 M) were prepared by dissolving the appropriate gravimetrically measured rare earth chloride salt in 0.05 M HCl. As an example, YCl3 (2.5 equivalents) was added to 25 μL of NBD ([…]) dissolved in 0.1 M tetramethylammonium acetate, and the pH was adjusted to 5 by the addition of triethylamine. The metallation was allowed to proceed overnight at 50° C. Samples were promptly frozen at −70° C., and metallation efficiency was assessed using a competitive metal-binding assay with Co-57.^3 Excess metal was scavenged with DTPA, which has very low affinity for the antibody (<<1%).\nMetal-AABD and metal-NBD complexes were incubated with 2D12.5 Fab mutant N85D_G54C and samples denatured, reduced and separated by SDS-PAGE, as described for Y-90 in the previous examples. […]"}}}
{"molecule": "O=C(O)CN1CCN(CC(=O)O)CCN(CC(=O)O)[C@H](Cc2ccc([N+](=O)[O-])cc2)CN(CC(=O)O)CC1", "note": "[(R)-isomer of 2-(4-nitrobenzyl)-DOTA, 2-(4-nitrobenzyl)-DOTA]", "values": [{"measurement": "relative binding affinity for 2D12.5 (in words)", "setting": "[1]", "result": "decreases less than an order of magnitude"}]}
{"molecule": "O=C(O)CN(CCN(CC(=O)O)CC(=O)O)CCN(CC(=O)O)CC(=O)O", "note": "[DTPA]", "values": [{"measurement": "affinity for the antibody", "setting": "[1]; DTPA used to scavenge excess metal", "result": "< 1", "unit": "%"}]}
{"molecule": "O=C([O-])CN1CCN(CC(=O)[O-])CCN(CC(=O)[O-])CCN(CC(=O)[O-])CC1.[Eu+3]", "note": "[Eu^3+]", "values": [{"measurement": "relative binding affinity compared with Y-DOTA (in words)", "setting": "[2]", "result": "strongest binders"}]}
{"molecule": "O=C([O-])CN1CCN(CC(=O)[O-])CCN(CC(=O)[O-])CCN(CC(=O)[O-])CC1.[Gd+3]", "note": "[Gd-DOTA]", "values": [{"measurement": "relative binding affinity compared with Y-DOTA (in words)", "setting": "[2]", "result": "bind more tightly than the original Y^3+ complex"}, {"measurement": "relative binding affinity compared with Y-DOTA (in words)", "setting": "[2]; listed as Gd^3+", "result": "strongest binders"}]}
{"molecule": "O=C(O)CN1CCN(CC(=O)O)CCN(CC(=O)O)C(Cc2ccc([N+](=O)[O-])cc2)CN(CC(=O)O)CC1", "note": "(stereo not shown) [NBD, [S]-2-(p-nitrobenzyl)-DOTA]", "values": [{"measurement": "permanent bond formation with N85D_G54C 2D12.5 mutant", "setting": "[3]; Western blot, hybridoma-derived 2D12.5 as 1° stain", "result": "negative"}]}
{"molecule": "O=C([O-])CN1CCN(CC(=O)[O-])CCN(CC(=O)[O-])CCN(CC(=O)[O-])CC1.[Tb+3]", "note": "[Tb-DOTA]", "values": [{"measurement": "relative binding affinity compared with Y-DOTA (in words)", "setting": "[2]", "result": "strongest binders"}]}
{"molecule": "O=C([O-])CN1CCN(CC(=O)[O-])CCN(CC(=O)[O-])CCN(CC(=O)[O-])CC1.[Y+3]", "note": "[Y-DOTA]", "values": [{"measurement": "Kd", "setting": "[2]; DOTA analog used was [S]-2-(p-nitrobenzyl)-DOTA", "result": 10, "unit": "nM"}, {"measurement": "relative binding affinity for 2D12.5 (in words)", "setting": "[1]", "result": "between that observed for the (S)- and (R)-isomers"}]}
{"molecule": "O=C(O)CN1CCN(CC(=O)O)CCN(CC(=O)O)[C@@H](Cc2ccc([N+](=O)[O-])cc2)CN(CC(=O)O)CC1", "note": "[Y-NBD, (S)-2-(4-nitrobenzyl)-DOTA]", "values": [{"measurement": "relative binding affinity for 2D12.5 (in words)", "setting": "[1]", "result": "clearly stronger"}, {"measurement": "relative binding affinity for 2D12.5 (in words)", "setting": "[1]; listed as (S)-isomer of 2-(4-nitrobenzyl)-DOTA", "result": "preferred isomer for binding"}, {"measurement": "binding strength of NBD complexes among the rare earths", "setting": "[3]; Western blots", "result": "one of the strongest binders"}]}
{"molecule": "(5-Amino-2-methoxyphenyl)-carboxymethyl)-DOTA", "values": [{"measurement": "relative binding affinity for 2D12.5 (in words)", "setting": "[1]", "result": "still sufficiently strong"}]}
